Data set [1] is described as follows: Study 1: body weight and food intake in DIO mice, linagliptin monotreatment for 14 days. The data set is classed as in vivo, C57BL/6J mice. The following applies: linagliptin 3 mg/kg/day s.c. How it is done: (§1) The Danish Animal Experiments Inspectorate approved all experiments which were conducted using internationally accepted principles for the use of laboratory animals (license #2013-15-2934-00784). The study was carried out in compliance with the ARRIVE guidelines. 99 C57BL/6J mice were from Janvier Labs (Le Genest Saint Isle, France) and housed in a controlled environment (12 h light/dark cycle, lights on at 3 AM, 21 ± 2 °C, humidity 50 ± 10%). Each animal was identified by an implantable subcutaneous microchip (PetID Microchip, E-vet, Haderslev, Denmark). Mice arrived at 5 weeks of age and were made diet-induced obese (DIO) by offering ad libitum access to tap water and high-fat diet (5.15 kcal/g; 60 kcal-% fat, 20 kcal-% carbohydrate, 20% kcal-% protein; D12492, Ssniff, Soest, Germany) for 26–27 weeks before study start. The mice were kept on the diet throughout the study.
(§2) DIO mice were randomized into individual treatment groups (n = 9–10 per group) based on body weight measured 3 days prior to initiation of drug treatment. Vehicle was phosphate-buffered saline added 5% mannitol. […] All drugs were administered once daily at 1 h before lights off. The first dose was given on day 0. Body weight and food intake was monitored daily during the treatment period.

Data set [2] can be described thus: Plasma analytes in DIO mice (active GLP-1, GIP, insulin, metabolic markers). Format: in vivo, C57BL/6J mice. The following applies: study 1, linagliptin 3 mg/kg/day s.c., 4 h post-dosing. How it is done: Terminal cardiac blood samples were collected in EDTA-coated tubes with (for GLP-1 and GIP analysis) or without (for DPP-IV enzyme analysis) 10 µl DPP-IV inhibitor/ml blood (Millipore, Copenhagen, Denmark) prior to sampling. Plasma was separated by centrifugation (3000 × g for 10 min at 4 °C) and immediately frozen on dry ice and stored at − 80 °C until further analysis. DPP-IV enzyme catalytic activity was determined as reported previously. Active GLP-1 and GIP levels were assessed by ELISA (#K150JWC, MesoScale Discovery, Rockville, MD; #27702, IBL, Fujioka, Japan) according to the manufacturer’s instructions. Plasma levels of insulin were measured by ELISA (#K152BZC, MesoScale Discovery, Rockville, MD), according to the manufacturer’s instructions.

A short description of data set [3]: Oral glucose tolerance test in DIO mice. Format: in vivo, C57BL/6J mice. As to conditions: study 2; treatment day 12; 4 h fast; 2 g/kg oral glucose; blood glucose 0–240 min; compared to vehicle dosing. How it is done:
In study 2, an oral glucose tolerance test (OGTT) was performed one week prior to treatment start (day -7) and on treatment day 12. Animals were fasted for 4 h prior to OGTT. At t = 0 an oral glucose load (2 g/kg glucose; 200 mg/mL, Fresenius Kabi, Sweden) was administered via a gastrically placed tube. Blood samples for measuring blood glucose were collected from the tail vein at t = 0, 15, 30, 60, 120, 180, 240 min. A pre-OGTT blood sample was collected at − 60 min (OGTT on day − 7) and − 240 min (OGTT on treatment day 12). Glucose area under the curve (AUC) calculations were determined as total AUC from the sampling period of 0 to 240 min.

The nature of data set [4]: Study 2: body weight and food intake in DIO mice, 14 days of treatment then 6 days of wash-out. Format: in vivo, C57BL/6J mice. The following applies: linagliptin 3 mg/kg or Y2R agonist 3 or 30 nmol/kg s.c. once daily for 14 days. How it is done: as §1, §2
Data set [5] is described as follows: Linagliptin exposure in plasma by LC-MS/MS. The data set is classed as in vivo, C57BL/6J mice. As to conditions: DIO mice, 3 mg/kg/day s.c. once daily, day 14, before (approx. 24 h after previous dose) and 4 h after last dose.
Data set [6] has as its target T1, DPP-IV (Homo sapiens, UniProt P27487).
T1 construct: Human plasma was used as source of endogenous DPP-IV; from tissue; host or cells: human EDTA-plasma from healthy adult donors
Kind of data set: Degradation of synthetic NPY1–36 and PYY1–36 in human plasma (control samples). Format: in vitro ADME. The following applies: 30 pmol peptide in 85 µl PBS + 5 µl human EDTA-plasma, 37 °C, no linagliptin, MALDI-TOF-MS.
Experimental: Human plasma was used as source of endogenous DPP-IV. Healthy adult individuals were enrolled after they provided written informed consent. […] Blood samples were collected from the cubital vein into blood collection tubes (EDTA-plasma). […] Plasma aliquots were transferred into 2 ml vials and stored − 80 °C. […] Parent NPY, PYY and corresponding fragments were determined by matrix-assisted laser desorption/ionization time-of-flight mass spectrometry (MALDI-TOF–MS) as described previously[34].

Data set [7] has as its system dipeptidyl peptidase IV (DPP-IV). The following applies: in the circulation; inactivation by DPP-IV; cited from earlier work. The source says: Defective pancreatic β-cell function is a key pathological hallmark in type 2 diabetes (T2D). Because progressive loss of β-cell insulin secretory capacity is associated with worsening hyperglycemia, targeting intrinsic β-cell activity is considered essential in T2D management. A canonical role of the gut-derived incretin hormone glucagon-like peptide-1 (GLP-1) is potentiation of glucose-stimulated insulin secretion by activation of GLP-1 receptors in islet β-cells. The incretin effect is estimated to account for approximately 50–70% of total insulin secreted following oral glucose administrat ...

The text below walks through data of paper PMC8044192 (Scientific Reports, 2021).

T1 sequence (P27487 39-766 limits assumed): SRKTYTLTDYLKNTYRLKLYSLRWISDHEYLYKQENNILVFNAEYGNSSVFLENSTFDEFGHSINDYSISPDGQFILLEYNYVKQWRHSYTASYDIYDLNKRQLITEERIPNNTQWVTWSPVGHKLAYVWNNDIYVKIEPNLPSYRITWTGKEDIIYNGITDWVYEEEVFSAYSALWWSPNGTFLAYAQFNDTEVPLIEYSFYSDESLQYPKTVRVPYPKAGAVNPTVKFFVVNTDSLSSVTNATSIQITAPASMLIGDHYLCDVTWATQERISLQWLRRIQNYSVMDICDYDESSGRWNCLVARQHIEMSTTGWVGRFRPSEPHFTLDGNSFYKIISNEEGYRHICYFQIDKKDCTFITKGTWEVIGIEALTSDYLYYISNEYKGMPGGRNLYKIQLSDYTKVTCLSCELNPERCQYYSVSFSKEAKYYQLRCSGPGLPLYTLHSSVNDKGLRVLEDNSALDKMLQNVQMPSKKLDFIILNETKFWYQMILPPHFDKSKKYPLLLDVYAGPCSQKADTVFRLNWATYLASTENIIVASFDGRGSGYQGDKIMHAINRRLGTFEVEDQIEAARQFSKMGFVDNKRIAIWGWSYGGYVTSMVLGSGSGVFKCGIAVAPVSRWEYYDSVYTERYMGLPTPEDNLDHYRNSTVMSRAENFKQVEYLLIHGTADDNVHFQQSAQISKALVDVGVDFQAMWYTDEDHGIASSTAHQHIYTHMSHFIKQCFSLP

Consider `CC#CCn1c(N2CCC[C@@H](N)C2)nc2c1c(=O)n(Cc1nc(C)c3ccccc3n1)c(=O)n2C` [linagliptin], for which the food intake entry in data set [1] (14 days) is recorded as “essentially unaffected”. In addition, the “weight loss compared to vehicle controls” value in data set [1] (14 days of treatment, p < 0.05) came to 2.8%. In addition, the “terminal plasma insulin levels” value in data set [2] (day 14) was “unaffected”. Also, in data set [2] (terminal, 14 days), the “plasma TNF-α concentration” value is reported as “significantly reduced”, the plasma pancreatic polypeptide entry is “unaffected”, the plasma resistin concentration result is “significantly reduced” and the “plasma total PYY” value is “unaffected”. Further, the oral glucose tolerance result in data set [3] was “significantly improved glucose tolerance”. The food intake entry in data set [4] is reported as “did not influence food intake”. Also, the plasma linagliptin exposure in data set [5] was ~ 200 nM.
As for “PYY: synthetic human full-length PYY1–36 used as DPP-IV substrate [peptide YY]”, the “fraction of PYY processed” value in data set [6] (18 h) is 30%-50%.
For glucagon-like peptide-1 [GLP-1_7–36], in data set [7], the circulatory half-life result is listed as “approximately 1 min”.
Consider neuropeptide Y [NPY], for which the “fraction of NPY processed by DPP-IV” value in data set [6] (8 h) is given as “approximately two-thirds”.
